These are literature values, as cited in patent publication US20070203140A1, “N-hydroxyguanidines as modulators of indoleamine 2,3-dioxygenase” (priority 2006, published 2007).

One data set deals with LLC tumors. Conditions: LLC tumors in C57B1/6 mice, versus placebo.
In another data set the test system is P815 tumor. Conditions: pre-immunized immune-competent mice.

For `Cn1cc(C[C@H](N)C(=O)O)c2ccccc21` [Example 1-MT, 1-methyl-tryptophan], in the data set on LLC tumors, the formation of tumors entry is “markedly delayed”. Further, in the data set on P815 tumor, the growth of tumors result was “inhibited”.
